We go through nine molecules from PMC9344678, “BTApep-TAT peptide inhibits ADP-ribosylation of BORIS to induce DNA damage in cancer” (Molecular Cancer, 2022).

Where no end group is shown, it is not given here.

One test concerns BORIS-N198-228 peptide. The experiment in a line: PARP1-catalyzed in vitro PARylation assay. Conditions: recombinant PARP1, ssDNA, 37 °C 30 min, dot blot anti-ADPr. Type of test: biochemical. The method, then: Peptides (1–4 μg) incubated with different samples were added to 50 μL PARP1 reaction buffer (50 mM Tris–HCl at pH 7.4, 2 mM MgCl2, 200 μM NAD^+), which contained 0.2 μg of recombinant PARP1 (Trevigen, 4668–100-01) and 2.5 μg of ssDNA (Sigma, D8899), and reaction was carried out at 37 °C for 30 min. Low molecular weight peptide and PARP1 protein in the reactions were separated by a 30 kDa cutoff centrifugal filter (Millipore, UFC803096). Then, SDS loading buffer was added to separate peptides or proteins and analyzed by dot blotting using an anti- ADP ribosylation (ADPr) antibody.
To further confirm ADP ribosylation at residues 198–228, the synthesized BORIS-N198-228 peptide was subjected to a PARP1-catalyzed in vitro PARylation assay. Single-strand DNA (ssDNA) was added to activate PARP1. The BORIS-N198-228 peptide was separated by centrifugal filtration, and its PARylation levels were examined by dot blotting using an anti-ADPr antibody. […] To determine the modification between residues 198–228, the BORIS-N198-228 peptide was pre-incubated with BTApep-TAT or His-TAT before processing for PARP1-catelyzed in vitro PARylation. […] Taken together, we provided evidence that ADP ribosylation of BORIS was responsible for the association with Ku70 and DNA repair. […]

In another test the target is T1, BORIS-N1-258 (Homo sapiens, UniProt Q8NI51).
T1 construct: The N terminal section of BORIS corresponding to AA 1–258 (BORIS-N1-258); 6xHis (C); made in house
T1 sequence (Q8NI51 1-258): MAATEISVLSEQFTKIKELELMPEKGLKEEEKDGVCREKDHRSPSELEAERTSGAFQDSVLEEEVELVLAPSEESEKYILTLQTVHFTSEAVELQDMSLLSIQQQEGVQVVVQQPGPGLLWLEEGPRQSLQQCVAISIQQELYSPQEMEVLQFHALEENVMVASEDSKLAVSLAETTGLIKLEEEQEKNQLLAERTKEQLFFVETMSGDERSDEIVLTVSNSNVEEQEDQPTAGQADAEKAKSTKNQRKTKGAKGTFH
As to the kind of experiment: BLI, BORIS-N1-258 immobilized on SSA sensor, free peptide in solution. Type of test: binding. To be noted: free peptide in PBS with 0.02% Tween 20. The method, then: Twelve tandemly connected His was synthesized and conjugated with biotin or FITC as a negative control peptide by China Peptides Co., Ltd. The peptides were stored in powder at -80 °C. The peptides were dissolved in phosphate-buffered saline and filtered through a 0.22 µm filter to remove bacteria before use. The interaction between peptides and BORIS-N1-258 was measured by Bio-layer interferometry (BLI) in the ForteBio OctetRed system. The measurement was carried out in 5 steps: initial baseline duration, loading duration, baseline duration, association duration, and dissociation duration. In loading duration, 10 nM biotinylated peptides or 1 µM BORIS-N1-258 protein were immobilized on streptavidin-coated biosensors (ForteBio). The immobilization typically reached a response level of 4 nm. Association and dissociation curves were obtained through the addition of a dilution series of BORIS-N1-258 or peptides in PBS with 0.02% Tween 20 for the indicated period of time using Octet acquisition software. The binding data were fitted using Octet analysis software.
The BORIS-N1-258 protein was conjugated with biotin and loaded onto an SSA sensor. The synthesized peptides were dissolved in PBS with 0.02% Tween 20.

Another test has as its system HEK293 cells. The experiment in a line: Proliferation of HEK293 cells. Type of test: cell-based. To be noted: 25 µM (Fig. 2D); normal cells not expressing BORIS. The method, then: (§1) H1299 cells (RRID: CVCL_0060) were cultured in RPMI 1640 medium supplemented with 10% FBS. HEK293 (RRID:CVCL_0045) and HeLa (RRID:CVCL_0030) cells were cultured in Dulbecco's modified Eagle’s medium (DMEM) supplemented with 10% FBS and placed in 37 ℃ and 5% CO2 incubators. Cells were seeded in 6-well plates at 1 × 10^5 cells/well or in 96-well plates at 2000 cells/well for experiments. Cell viability was measured by MTT assay.
(§2) Cells were plated and treated with BORIS-targeted peptide (BTApep-TAT) or negative control peptide (His-TAT) at concentrations of 10 µM, 25 µM, 50 µM and 100 µM for 3 days. Cell viability was measured by MTT assay. Cell apoptosis was measured by TUNEL assay (cat. # 40306ES20, Yeasen Biotech Co., Ltd) and Caspase-Glo 3/7 assay (G8090, Promega Corporation, an affiliate of Promega (Beijing) Biotech Co., Ltd.).

For a further test, the system named is H1299 cells. The experiment in a line: Proliferation of H1299 cells (MTT, cell counting). Type of test: cell-based. To be noted: 25 µM (Fig. 2D). On the procedure:
as §1, §2

In another test the test system is PARP2. To be noted: ref [33], [49]; cited from earlier work.
Another test has as its system BORIS. The experiment in a line: ADP ribosylation of BORIS under olaparib. Type of test: cell-based. Conditions: PARP inhibitor incubation.
The target in test [1] is T2, BORIS N-terminal region AA 1-258 (BORIS-N_(1-258)), His-tagged, from bacteria (human, UniProt Q8NI51 1-258, biotin (conjugated for loading onto the SSA sensor; position not stated; not said of the protein used free in solution or coated on plates)).
T2 construct: Cloned in the backbone of plasmid pFN6K; also called BORIS antigen; not shown: His6, C-terminal, kept
T2 sequence (looked up): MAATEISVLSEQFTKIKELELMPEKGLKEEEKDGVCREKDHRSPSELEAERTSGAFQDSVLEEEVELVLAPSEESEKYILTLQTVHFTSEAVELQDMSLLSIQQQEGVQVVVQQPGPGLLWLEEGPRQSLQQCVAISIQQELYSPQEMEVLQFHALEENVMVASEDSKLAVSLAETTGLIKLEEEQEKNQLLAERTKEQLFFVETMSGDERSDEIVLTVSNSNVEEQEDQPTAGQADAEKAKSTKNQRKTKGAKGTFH
As to the kind of experiment: BLI; ForteBio OctetRed; biotin-conjugated BORIS-N_(1-258) loaded onto an SSA sensor (1 µM in loading), free peptide in solution in PBS with 0.02% Tween 20. Conditions: both partners purified.

For test [2], the target named is T3, BORIS-N_(1-258) expressed and purified from HEK293 cells (human, UniProt Q8NI51 1-258).
T3 construct: source: HEK293 cells, expressed and purified
T3 sequence (looked up): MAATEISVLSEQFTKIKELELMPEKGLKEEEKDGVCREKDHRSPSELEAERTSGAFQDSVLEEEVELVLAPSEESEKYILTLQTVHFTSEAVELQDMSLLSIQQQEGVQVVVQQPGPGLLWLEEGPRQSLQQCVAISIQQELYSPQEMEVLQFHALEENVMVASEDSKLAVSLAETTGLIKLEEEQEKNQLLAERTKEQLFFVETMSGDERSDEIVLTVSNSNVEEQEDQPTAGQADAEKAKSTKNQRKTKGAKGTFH
The experiment in a line: BLI; ForteBio OctetRed; biotin-labeled peptide 9 loaded onto an SA sensor (10 nM in loading), dilution series of BORIS-N_(1-258) in PBS with 0.02% Tween 20. To be noted: both partners purified.

The target of test [3] is T2, BORIS N-terminal region AA 1-258 …. The description is as above. To be noted: both partners purified.
Test [4] has the same target. The experiment in a line: ELISA; plates coated overnight at 4 °C with purified His-tagged BORIS-N_(1-258) (carbonate buffer, pH 9.6); purified phage clones in serial dilutions, 2 h at RT; detection by HRP-conjugated anti-M13 antibody. Conditions: both partners purified.

Consider “BORIS-N198-228 peptide: synthesized peptide of BORIS residues 198–228 (EQLFFVETMSGDERSDEIVLTVSNSNVEEQE; UniProt Q8NI51 198-228, looked up, fragment)”, for which the “PARylation of the peptide itself” value with BORIS-N198-228 peptide was “accumulated in proportion to its abundance”.

With DWSSWVYRDPQT [Peptide 2], the Kd on BORIS-N1-258 (bacterial BORIS-N1-258 on SSA sensor, read-out: binding affinity (Kd)) amounted to 315 µM. In the case of RFDHWVWQSQPW [Scrambled peptide 9], on BORIS-N1-258 (result in words, BORIS-N1-258 on SSA sensor), the “affinity in BLI” value is recorded as “did not have any measurable affinity”. For the molecule “BTApep: BORIS-targeted peptide lacking the TAT penetrating peptide (VHWDFRQWWQPS)”, the “suppression of proliferation of HEK293 cells” value in the test on HEK293 cells is “did not inhibit cell proliferation”. For the same molecule, in the test on H1299 cells, the “suppression of proliferation of H1299 cells” value was “did not inhibit cell proliferation”. As to `O=C(c1cc(Cc2n[nH]c(=O)c3ccccc23)ccc1F)N1CCN(C(=O)C2CC2)CC1` [Olaparib, olaparib], in the test on PARP2, the “inhibition of PARP2” value is given as “inhibits”. In addition, the “effect on ADP ribosylation of BORIS” value in the test with BORIS is recorded as “did not attenuate ADP ribosylation of BORIS”.

B1: Peptide 9 (synthesized, free in solution) (peptide)
peptide: VHWDFRQWWQPS
notes: 12-mer selected from the Ph.D.-12 phage display peptide library; The methods say that the peptides were synthesized and conjugated with biotin or FITC; also called peptide from phage clone 9; BTApep; source: synthetic peptide (China Peptides Co., Ltd.)
The molecule B1 came in with a Kd in test [1] of 86.4 µM.

B2: Peptide 9 labeled with biotin (peptide)
peptide: VHWDFRQWWQPS
modifications: also: biotin (position not given here)
notes: 12-mer selected from the Ph.D.-12 phage display peptide library; also called BTApep-biotin; biotinylated peptide 9; source: synthetic peptide (China Peptides Co., Ltd.)
Regarding B2, the results for the Kd in test [2] and in test [3] were 0.00637 µM and 0.0053 µM, respectively.

B3: Phage clone 9 (peptide 9 displayed on phage) (peptide)
chain: VHWDFRQWWQPSGGGS
notes: 4 amino acid spacer that links the 12-mer to the N-terminus of a phage coat protein; Whole phage particle; source: purified phage clone from the Ph.D.-12 Phage Display Peptide Library (New England Biolabs); not shown: phage coat protein (Ph.D.-12 library), C-terminal, kept
As to B3, the binding result in test [4] is “binds”.

B4: Peptide 2 (peptide)
peptide: DWSSWVYRDPQT
notes: 12-mer selected from the Ph.D.-12 phage display peptide library; source: synthetic peptide (China Peptides Co., Ltd.)
In [1], B4 came in with a Kd of 314 µM.
